According to article PMC8767159, “Multiparameter Optimization of Trypanocidal Cruzain Inhibitors With In Vivo Activity and Favorable Pharmacokinetics” (Frontiers in Pharmacology, 2022):

Assays:
T. cruzi (Y strain) = assay: In vivo trypanocidal activity in mice infected with T. cruzi (Y strain); set-up: species or system Trypanosoma cruzi; conditions: for % reduction of peak parasitemia: vs vehicle
Experimental: Thirty-day-old female Swiss mice weighing 20–25 g and procured from the Center for the Development of Experimental Models for Medicine and Biology (CEDEME/UNIFESP) served as the subjects for these experiments. Animals were housed (5–6 per cage) in polypropylene cages and kept under controlled temperature (22–23°C) and humidity on a 12-h light/dark cycle (12 h light, 12 h dark; lights on at 6:30 am). Rodent chow and water were available ad libitum throughout the experiments. The Committee of Ethics in Research of the Universidade Federal de São Paulo approved all the experiments (CEUA n° 5301080816).
Treatment started on day five after infection with T. cruzi. The following parameters were evaluated in these experiments: level of parasitemia after the treatment, suppression of peak parasitemia (day seven after the infection), and reduction of parasitemia on the peak day (day seven after infection). Parasitemia was expressed as the number of T. cruzi trypomastigotes per 5 µl of blood and was calculated using the Brener method ([Brener, 1962]). […] On the seventh day of treatment, when parasitemia reached its peak, one-way ANOVA indicated a treatment effect (F3,16 = 7.47; p = 0.002). […] This dose-response effect is likely associated with the modulation of physiological systems that increase the susceptibility of the animals to infection with T. cruzi at high doses of the compound. […] The results of the in vivo studies indicate a moderate ability of 28 to suppress peak parasitemia at 150 mg/kg.

rhodesain = rhodesain (Trypanosoma brucei rhodesiense, UniProt Q95PM0); assay: Rhodesain fluorescence-based inhibition assay (Z-FR-AMC); type: biochemical; conditions: Table S3; compound 100 µM
rhodesain, sequence (Q95PM0 entry or part of it): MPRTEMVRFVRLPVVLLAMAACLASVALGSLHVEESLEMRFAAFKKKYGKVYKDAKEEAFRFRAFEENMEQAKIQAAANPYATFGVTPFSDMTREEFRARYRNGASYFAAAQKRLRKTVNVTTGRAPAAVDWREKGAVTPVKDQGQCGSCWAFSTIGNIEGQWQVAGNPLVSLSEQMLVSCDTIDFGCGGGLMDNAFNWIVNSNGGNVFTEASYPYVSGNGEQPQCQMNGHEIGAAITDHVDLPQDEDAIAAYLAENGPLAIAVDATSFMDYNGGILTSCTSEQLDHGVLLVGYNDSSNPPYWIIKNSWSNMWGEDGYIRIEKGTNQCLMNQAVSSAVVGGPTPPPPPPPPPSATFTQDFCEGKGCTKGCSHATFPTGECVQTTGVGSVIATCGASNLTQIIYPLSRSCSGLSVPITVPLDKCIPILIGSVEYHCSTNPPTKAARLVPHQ
Experimental: Rhodesain activity was measured using a fluorescence-based assay as previously described ([Fonseca et al., 2015]). The cleavage rates of the fluorogenic substrate Z-Phe-Arg-aminomethyl coumarin (Z-FR-AMC) were monitored at wavelengths of 340 nm for excitation and 440 nm for emission. All assays were performed in triplicate in a 0.1 M sodium acetate buffer, pH 5.5, with 1 mM beta-mercaptoethanol and 0.01% Triton X-100. The final concentration of rhodesain was 3 nM, and the substrate concentration was 2.5 μM. The cleavage of the substrate was followed by continuous reading for 5 min, and enzyme activity in the presence of 100 μM of each potential inhibitor was calculated based on initial velocity rates compared to DMSO controls. All compounds were tested in triplicate in three independent experiments.

[1] = Acute toxicity and open-field test in female Swiss mice; type: in vivo
Experimental: Thirty-day-old female Swiss mice weighing 20–25 g and procured from the Center for the Development of Experimental Models for Medicine and Biology (CEDEME/UNIFESP) served as the subjects for these experiments. […] Rodent chow and water were available ad libitum throughout the experiments.
The compound, solubilized in 10% DMSO aqueous solution, was administered orally in a single dose of 150 and 300 mg/kg of body weight in female Swiss mice. Parameters related to behavior, autonomic functions, neurological activity, and mortality were assessed as toxicity signs. Soon after the administration of the compound, mice were placed in a circular open-field arena (40 cm diameter) with 50-cm-high walls to assess motor deficits. […] After this period, toxicity signs were assessed once a day for two consecutive weeks. The reference drug BZ at 150 mg/kg and vehicle (10% DMSO) were administered as controls.

[2] = 150 mg/kg, gavage, five daily doses from day 5 after infection, day 7, female Swiss mice
[3] = single oral dose 150 and 300 mg/kg, 2 weeks of observation
[4] = 300 mg/kg, gavage, five daily doses, day 7, female Swiss mice

O=C(Cn1ccnc1[N+](=O)[O-])NCc1ccccc1 [BZ, benznidazole, reference compound]
% reduction of peak parasitemia (T. cruzi (Y strain); [2]): 100%

CC(=O)Nc1cccc(OCC(=O)NCCc2nc3ccccc3[nH]2)c1 [Compound 3]
inhibition at 100 µM (rhodesain): 41%

O=C(COc1ccc2cc(O)ccc2c1)NCCc1nc2ccccc2[nH]1 [Compound 10]
inhibition at 100 µM (rhodesain): 60%

O=C(COc1ccc2ccc(O)cc2c1)NCCc1nc2ccccc2[nH]1 [Compound 11]
inhibition at 100 µM (rhodesain): 67%

Nc1cccc(OCC(=O)NCCc2nc3ccccc3[nH]2)c1 [Compound 9]
inhibition at 100 µM (rhodesain): 40%

COc1ccc2cc(OCC(=O)NCCc3nc4ccccc4[nH]3)ccc2c1 [Compound 12]
inhibition at 100 µM (rhodesain): 56%

NC(=O)Cn1c(CCNC(=O)COc2ccccc2)nc2ccccc21 [Compound 28]
Locomotor deficits (open-field test) ([1]; oral 150 and 300 mg/kg): did not cause locomotor deficits | Mortality [1, 3]: no mortality | Toxicity signs (behavior, autonomic functions, neurological activity) [1, 3]: No toxicity signs | reduction in parasitemia levels at lower doses (T. cruzi (Y strain); 75 mg/kg and 37.5 mg/kg, Supplementary Figure S10): no reduction | % reduction of peak parasitemia (T. cruzi (Y strain); [2]): 36.9% | increase in the peak parasitemia compared with the vehicle (T. cruzi (Y strain); [4]): 13% | % reduction of peak parasitemia (T. cruzi (Y strain); [4]): -13%
